Tests used:
[1] = Hygroscopicity test of the amorphous compound (1) (microbalance, weight change vs relative humidity); type: physicochemical; conditions: 25° C., relative humidities of 5% to 90%; FIG. 3
Method: The hygroscopicity of the amorphous substance was evaluated using a microbalance (MB300W, VTI Corporation, USA). A sample placed in a glass holder was suspended in a device adjusted at 25° C., and a change in the weight thereof was followed over relative humidities of 5% to 90%. The sample weight was measured at measuring points (of the relative humidities) with an interval of 2 minutes; the weight at the time point of the amount of change reaching within 0.2% was defined as the final value.

[2] = Solubility test of the crystalline compound (1) and the amorphous compound (1) (apparent solubility in buffer, HPLC); type: physicochemical; conditions: room temperature, 30 minutes standing after ultrasonication
Method: An excess amount of each sample was added to 0.5 mL of the following each test solution, which was then dispersed and dissolved by a ultrasonication operation for several minutes (about 3 minutes). After allowing to stand at room temperature for 30 minutes, the supernatant was separated by a centrifugation operation; the sample concentration in the supernatant as determined by an HPLC method was defined as an apparent solubility in each test solution.
pH 5: Diluted Mcllvaine buffer solution (Kanto Chemical Co. Inc.)
pH 7: GIBCO™ (Dulbecco's phosphate-buffered saline, Invitrogen Corporation)

[3] = pH 5 buffer (diluted McIlvaine buffer solution)
[4] = pH 7 buffer (Dulbecco's phosphate-buffered saline)

| Hygroscopicity (weight change over relative humidity) [1] | Apparent solubilites [2, 3] [mg/mL] | Apparent solubilites [2, 4] [mg/mL] | Structure (SMILES) |
| --- | --- | --- | --- |
| low hygroscopicity | 0.225 | 0.011 | COc1cc(/C=C2\CCCN([C@@H](C)c3ccc(F)cc3)C2=O)ccc1-n1cnc(C)c1 [Amorphous compound (1), (3E)-1-[(1S)-1-(4-fluorophenyl)ethyl]-3-[3-methoxy-4-(4-methyl-1H-imidazol-1-yl)benzylidene]piperidin-2-one] |
|  | 0.077 | 0.003 | COc1cc(/C=C2\CCCN([C@@H](C)c3ccc(F)cc3)C2=O)ccc1-n1cnc(C)c1 [Crystalline compound (1), (3E)-1-[(1S)-1-(4-fluorophenyl)ethyl]-3-[3-methoxy-4-(4-methyl-1H-imidazol-1-yl)benzylidene]piperidin-2-one] |

Source: patent US7923563B2, “Amorphous object of cinnamide compound” (Eisai R&D Management Co., Ltd., priority 2004, dated 2011)
